Test results published in ChEMBL document CHEMBL1156861, “Synthesis and structure-activity relationship of substitutions at the C-1 position of Delta9-tetrahydrocannabinol” (Bioorg Med Chem Lett, 2010).

How the values were obtained:
Cannabinoid receptor 2 = Cannabinoid receptor 2 (Homo sapiens, UniProt P34972); experiment: Displacement of [3H]CP-55940 from CB2 receptor
Cannabinoid receptor 1 = Cannabinoid receptor 1 (Homo sapiens, UniProt P21554); experiment: Displacement of [3H]CP-55940 from CB1 receptor
Cannabinoid receptor 1, sequence (P21554 whole entry): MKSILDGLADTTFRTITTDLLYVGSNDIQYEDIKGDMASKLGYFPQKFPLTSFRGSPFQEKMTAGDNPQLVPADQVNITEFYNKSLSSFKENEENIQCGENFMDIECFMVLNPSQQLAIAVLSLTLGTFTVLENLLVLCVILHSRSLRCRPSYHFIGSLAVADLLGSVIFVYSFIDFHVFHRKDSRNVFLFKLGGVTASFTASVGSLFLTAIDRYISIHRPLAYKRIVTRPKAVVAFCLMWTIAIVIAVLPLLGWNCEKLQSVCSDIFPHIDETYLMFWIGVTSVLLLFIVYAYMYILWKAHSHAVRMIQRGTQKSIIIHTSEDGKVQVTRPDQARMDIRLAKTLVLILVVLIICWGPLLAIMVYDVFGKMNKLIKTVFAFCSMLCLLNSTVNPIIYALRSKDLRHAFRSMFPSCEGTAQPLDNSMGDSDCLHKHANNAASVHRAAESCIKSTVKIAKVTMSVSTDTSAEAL

[1] = Selectivity ratio of Ki for CB1 receptor to Ki for CB2 receptor

Cannabinoid receptor 2, sequence (P34972 whole entry): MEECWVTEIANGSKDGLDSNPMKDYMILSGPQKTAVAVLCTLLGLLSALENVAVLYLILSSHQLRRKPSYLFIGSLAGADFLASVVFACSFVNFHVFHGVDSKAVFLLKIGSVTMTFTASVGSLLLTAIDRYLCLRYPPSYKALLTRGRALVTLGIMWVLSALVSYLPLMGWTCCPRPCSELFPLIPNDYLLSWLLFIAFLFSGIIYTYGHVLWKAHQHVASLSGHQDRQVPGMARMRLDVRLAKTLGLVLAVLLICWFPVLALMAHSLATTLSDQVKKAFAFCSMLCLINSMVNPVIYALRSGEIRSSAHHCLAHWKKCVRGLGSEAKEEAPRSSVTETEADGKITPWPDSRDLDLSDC

Row | SMILES | Ki (Cannabinoid receptor 2) [nM] | Ki (Cannabinoid receptor 1) [nM] | Ratio Ki [1]
1 | CCCCCc1cc2c(c(C(=O)NCC(N)=O)c1)[C@@H]1C=C(C)CC[C@H]1C(C)(C)O2 | > 3000 | > 3000 | –
2 | CCCCCc1cc(C#N)c2c(c1)OC(C)(C)[C@@H]1CCC(C)=C[C@@H]21 | 387 | 1720 | 3
3 | CCCCCc1cc(NC(=O)CN(C)C)c2c(c1)OC(C)(C)[C@@H]1CCC(C)=C[C@@H]21 | > 3000 | > 3000 | –
4 | CCCCCc1cc(NC(=O)OC)c2c(c1)OC(C)(C)[C@@H]1CCC(C)=C[C@@H]21 | 1400 | > 3000 | –
5 | CCCCCCC(C)(C)c1cc(C#N)c2c(c1)OC(C)(C)[C@@H]1CCC(C)=C[C@@H]21 | 5.3 | 67.8 | 13
6 | CCCCCCC(C)(C)c1cc(NC(=O)NC)c2c(c1)OC(C)(C)[C@@H]1CCC(C)=C[C@@H]21 | 257 | 333 | 1
7 | CCCCCCC(C)(C)c1cc(NC(=O)c2ccncc2)c2c(c1)OC(C)(C)[C@@H]1CCC(C)=C[C@@H]21 | 1090 | > 3000 | > 3
8 | CCCCCc1cc(N)c2c(c1)OC(C)(C)[C@@H]1CCC(C)=C[C@@H]21 | 215 | 616 | 3
9 | CCCCCc1cc2c(c(N(C)C)c1)[C@@H]1C=C(C)CC[C@H]1C(C)(C)O2 | > 3000 | > 3000 | –
10 | CCCCCc1cc2c(c(C(=O)N(C)C)c1)[C@@H]1C=C(C)CC[C@H]1C(C)(C)O2 | 1210 | > 3000 | –
11 | CCCCCCC(C)(C)c1cc(NC(C)=O)c2c(c1)OC(C)(C)[C@@H]1CCC(C)=C[C@@H]21 | 216 | 1340 | 6
12 | CCCCCc1cc(CN)c2c(c1)OC(C)(C)[C@@H]1CCC(C)=C[C@@H]21 | > 3000 | > 3000 | –
13 | CCCCCc1cc2c(c([S+](C)[O-])c1)[C@@H]1C=C(C)CC[C@H]1C(C)(C)O2 (single isomer, unassigned; diastereomer A) | 1930 | > 3000 | –
14 | CCCCCc1cc2c(c(C(=O)NC)c1)[C@@H]1C=C(C)CC[C@H]1C(C)(C)O2 | 1260 | > 3000 | –
15 | CCCCCc1cc(NC(=O)c2ccncc2)c2c(c1)OC(C)(C)[C@@H]1CCC(C)=C[C@@H]21 | 1770 | > 3000 | –
16 | CCCCCc1cc2c(c([S+](C)[O-])c1)[C@@H]1C=C(C)CC[C@H]1C(C)(C)O2 (single isomer, unassigned; diastereomer B) | > 3000 | > 3000 | –
17 | CCCCCc1cc(NC(C)=O)c2c(c1)OC(C)(C)[C@@H]1CCC(C)=C[C@@H]21 | 1400 | > 3000 | –
18 | CCCCCc1cc2c(c(SC)c1)[C@@H]1C=C(C)CC[C@H]1C(C)(C)O2 | 469 | 955 | 2
19 | CCCCCc1cc(CNC(C)=O)c2c(c1)OC(C)(C)[C@@H]1CCC(C)=C[C@@H]21 | 1500 | > 3000 | –
20 | CCCCCc1cc(NC(N)=O)c2c(c1)OC(C)(C)[C@@H]1CCC(C)=C[C@@H]21 | > 3000 | > 3000 | –
21 | CCCCCc1cc(NS(C)(=O)=O)c2c(c1)OC(C)(C)[C@@H]1CCC(C)=C[C@@H]21 | 1720 | > 3000 | –
22 | CCCCCc1cc(NC(=O)NC)c2c(c1)OC(C)(C)[C@@H]1CCC(C)=C[C@@H]21 | 2050 | > 3000 | –
23 | CCCCCc1cc(CNC(N)=O)c2c(c1)OC(C)(C)[C@@H]1CCC(C)=C[C@@H]21 | 782 | > 3000 | –
24 | CCCCCCC(C)(C)c1cc(N)c2c(c1)OC(C)(C)[C@@H]1CCC(C)=C[C@@H]21 | 2.9 | 11.7 | 4
25 | CCCCCc1cc2c(c(C(=O)O)c1)[C@@H]1C=C(C)CC[C@H]1C(C)(C)O2 | > 3000 | > 3000 | –
26 | CCCCCc1cc2c(c(C(N)=O)c1)[C@@H]1C=C(C)CC[C@H]1C(C)(C)O2 | 2190 | > 3000 | –
27 | CCCCCc1cc2c(c(C(=O)NC(CO)CO)c1)[C@@H]1C=C(C)CC[C@H]1C(C)(C)O2 | 2000 | > 3000 | –
28 | CCCCCCC(C)(C)c1cc(O)c2c(c1)OC(C)(C)[C@@H]1CCC(C)=C[C@@H]21 | 0.2 | 0.24 | 1
29 | CCCCCc1cc(CNS(C)(=O)=O)c2c(c1)OC(C)(C)[C@@H]1CCC(C)=C[C@@H]21 | > 3000 | > 3000 | –
30 | CCCCCCC(C)(C)c1cc(NS(C)(=O)=O)c2c(c1)OC(C)(C)[C@@H]1CCC(C)=C[C@@H]21 | 255 | 1840 | 7
